Experimental data published in patent US20040224981A1, “Antibacterial methods and compositions” (priority 2003, published 2004).
Values after ≈ are worked out from the molar mass of the structure shown. Counter-ions that a name gives are not always drawn. Like-named read-outs stand apart in the source and are kept apart here.

Experiments:
[1] = tested on: S. aureus, coagulase-negative staphylococci and S. pyogenes strains; test: Serial passage, whole panel of 19 isolates; format: cell-based; details: after 20 passages; observed with five of the 19 organisms tested
Procedure: MRSi compound 5 (acetate salt), mupirocin and MRSi compound 5/mupirocin 1:1 combination were tested for development of resistance following serial passage using 19 isolates, including S. aureus, coagulase-negative staphylococci and S. pyogenes strains.

[2] = tested on: S. aureus RN4220 (pYH4-MRS); test: Mode of action: MIC with MRS over-production; format: cell-based
Procedure: The strain expresses high levels of MRS upon the addition of 0.01 μg/mL of anyhdrotetracycline.

[3] = tested on: E. faecium; test: MIC against E. faecium; format: cell-based; details: Enterococcus faecium, ATCC33667
Procedure: (§1) MRSi compound 5 alone and in combination with mupirocin was tested recent clinical isolates of E. faecalis (n=28) and E. faecium (n=23). Both the acetate salt and mupirocinate salts of MRSi compound 5 maintained potent activity against vancomycin-susceptible and—resistant enterococci (Tables 8, 9, and 10).

[4] = tested on: S. aureus ATCC 29213 and 31-1334; test: Selection of spontaneous resistant mutants (mutation frequency); format: cell-based, Staphylococcus aureus
Procedure: Approximately, 10^9 bacteria were plated onto Mueller-Hinton agar supplemented with 10% horse blood and containing various concentrations of the test compounds alone and in combination. After 24 and 48 hours of incubation at 35° C., the bacterial colonies were counted and the frequencies of mutation were determined relative to the total viable count of organisms that were plated. Resistant clones were re-plated once on plates containing the same concentration of agent that was used for the selection.

[5] = tested on: S. aureus; test: MIC against S. aureus strains and clinical isolates (broth microdilution); format: cell-based, Staphylococcus aureus
Procedure: were tested against a collection of clinical isolates of S. aureus including strains that were multi-resistant to mupirocin and to other agents such as gentamicin and oxacillin.
The acetate and mupirocin salts of the MRS inhibitor compound 5 were tested against a collection of both low and high-level mupirocin resistant clinical isolates of S. aureus (Table 6).
The bacterial strains were tested for susceptibility to mupirocin and MRSi compound 2 using the broth microdilution method in accordance with NCCLS guideline to determine their MICs.
Briefly, the MIC and checkerboard titration assays were performed with strains in microtiter trays with cation-supplemented Mueller-Hinton broth (Difco). Inocula were prepared by suspending growth from blood agar plates in sterile saline to a density equivalent to that of a 0.5 McFarland standard and were diluted […] to produce a final inoculum of 5×10^5 CFU/ml. The trays were incubated aerobically overnight. Standard quality control strains were included with each run. Fractional inhibitory concentrations (FICs) were calculated as the MIC of drug A or B in combination/MIC of drug A or B alone, and the FIC index was obtained by adding the two FICs. FIC indices were interpreted as synergistic if the values were ≦0.5, additive or indifferent if the values were >0.5 to 4, and antagonistic if the values were >4.0.

[6] = tested on: E. faecalis; test: MIC against E. faecalis; format: cell-based; details: Enterococcus faecalis, Table 8
Procedure: The MRS inhibitor 4 alone and in combination with mupirocin (mupirocin salt and 1:1 combination) were tested against a collection of Gram-positive pathogens.
as §1

[7] = S. aureus RN4220 (pYH4-MRS), +aTC (MRS over-expression)
[8] = ATCC 51299 / VRE, E. faecalis ATCC 51299 (VRE)

In the case of `C=C(F)c1sc(CNCCCNc2cc(=O)c3ccccc3[nH]2)c(C)c1Br` [MRSi Cmpd 5, N-(4-bromo-5-(1-fluorovinyl)-3-methylthiophen-2-ylmethyl)-N′-(1H-quinolin-4-one)propane-1,3-diamine], the “MICs of the most resistant isolates that could be selected” value [1] is reported as 16 µg/mL, the “increase in MIC on over-expression of MRS” value ([2]; +aTC vs −aTC, 0.01 μg/mL anhydrotetracycline) is reported as 8 fold and the MIC [2, 7] is reported as 1 µg/mL (≈ 2.22 µM). It also gave an MIC ([2]; S. aureus RN4220 (pYH4-MRS), −aTC (no anhydrotetracycline)) of 0.12 µg/mL (≈ 0.266 µM).

With `Brc1cc(Br)c2c(c1)C(NCCCNc1nc3ncccc3[nH]1)CCN2` (stereo not shown) [MRSi cmpd 2, N-(6,8-Dibromo-1,2,3,4-tetrahydroquinolin-4-yl)-N′-(1H-imidazo[4,5-b]pyridine-2-yl)-propane-1,3-diamine dihydrochloride] the MIC [3] was ≤ 0.004 µg/mL, the “Mutation Frequency (48 hours)” value ([4]; S. aureus 31-1334 (low level mupirocin-resistant), selecting concentration 2 x MIC) was 3.3 × 10^−7 and the “Mutation Frequency (48 hours)” value ([4]; S. aureus 31-1334 (low level mupirocin-resistant), selecting concentration 4 x MIC) was 6.8 × 10^−8. For the same compound, the “Mutation Frequency (48 hours)” value ([4]; S. aureus 31-1334 (low level mupirocin-resistant), selecting concentration 8 x MIC) was 1.9 × 10^−8, the “Mutation Frequency (48 hours)” value ([4]; S. aureus ATCC 29213 (mupirocin susceptible), selecting concentration 2 x MIC) was 1.01 × 10^−7 and the “Mutation Frequency (48 hours)” value ([4]; S. aureus ATCC 29213 (mupirocin susceptible), selecting concentration 4 x MIC) was 3.14 × 10^−8. The “Mutation Frequency (48 hours)” value ([4]; S. aureus ATCC 29213 (mupirocin susceptible), selecting concentration 8 x MIC) was 2.07 × 10^−8, the MIC ([5]; Staphylococcus aureus, ATCC43300, S. aureus ATCC 43300 (ORSA), read-out: MIC) was 0.25 µg/mL and the MIC ([5]; Staphylococcus aureus, NRS 1 / VISA, S. aureus NRS1 (VISA)) was 0.25 µg/mL. The MIC ([5]; Staphylococcus aureus, NRS107, S. aureus NRS107 (HL Mup rest.), read-out: MIC) was 0.06 µg/mL, the MIC ([5]; Staphylococcus aureus, S. aureus 10-420 (LL Mup. Rest.), read-out: MIC) was 0.25 µg/mL and the MIC ([5]; Staphylococcus aureus, S. aureus 14-354 (LL Mup. Rest.), read-out: MIC) was 0.25 µg/mL. It also gave an MIC ([5]; Staphylococcus aureus, S. aureus 25-670 (HL Mup. Rest.), read-out: MIC) of 0.25 µg/mL, an MIC ([5]; Staphylococcus aureus, S. aureus 31-1334 (LL Mup Rest.), read-out: MIC) of 0.25 µg/mL and an MIC ([5]; Staphylococcus aureus, S. aureus 36-1298 (LL Mup. Rest.), read-out: MIC) of 0.06 µg/mL. For the same compound, the MIC ([5]; Staphylococcus aureus, S. aureus 87-2797 (HL Mup. Rest.), read-out: MIC) was 0.25 µg/mL, the MIC ([5]; Staphylococcus aureus, S. aureus 87-2797 (Mup. Susc.), read-out: MIC) was 0.25 µg/mL and the MIC ([5]; Staphylococcus aureus, S. aureus 101-100 (Mup. Susc.), read-out: MIC) was 0.12 µg/mL. The MIC ([5]; Staphylococcus aureus, S. aureus LZ1 (HL Mup rest.), read-out: MIC) was 0.12 µg/mL, the MIC ([5]; Staphylococcus aureus, S. aureus LZ6 (HL Mup rest.), read-out: MIC) was 0.25 µg/mL and the MIC ([5]; Staphylococcus aureus, S. aureus LZ8 (LL Mup. Rest.), read-out: MIC) was 0.25 µg/mL. It also gave an MIC ([5]; Staphylococcus aureus, S. aureus LZ9, read-out: MIC) of 0.25 µg/mL, an MIC ([5]; Staphylococcus aureus, S. aureus LZ10, read-out: MIC) of 0.25 µg/mL and an MIC ([5]; Staphylococcus aureus, S. aureus Miles Hall, read-out: MIC) of 0.12 µg/mL. The MIC ([5]; Staphylococcus aureus, S. aureus Oxford, read-out: MIC) was 0.12 µg/mL, the MIC90 ([5]; Staphylococcus aureus, all S. aureus strains of Table 1, read-out: MIC 90) was 0.25 µg/mL and the MIC ([5]; Table 12, S. aureus 25-670, high level mupirocin-resistant, agent alone) was 0.5 8 g/mL. The “MIC Range” value ([5]; all S. aureus strains of Table 1 (mupirocin-susceptible and -resistant)) was 0.06 to 0.25 µg/mL, the MIC [6, 8] was 0.03 µg/mL and the MIC ([6]; E. faecalis 1) was 0.015 µg/mL. The MIC ([6]; E. faecalis 7) was 0.06 µg/mL.

Work on `CO[C@@H]1[C@@H](OC(N)=O)[C@@H](O)[C@H](Oc2ccc3c(O)c(NC(=O)c4ccc(O)c(CC=C(C)C)c4)c(=O)oc3c2C)OC1(C)C` [Novobiocin] yielded an MIC [2, 7] of 0.25 µg/mL (≈ 0.408 µM) and an MIC ([2]; Staphylococcus aureus) of 0.25 µg/mL (≈ 0.408 µM).

With `CN[C@H](CC(C)C)C(=O)N[C@H]1C(=O)N[C@@H](CC(N)=O)C(=O)N[C@H]2C(=O)N[C@H]3C(=O)N[C@H](C(=O)N[C@H](C(=O)O)c4cc(O)cc(O)c4-c4cc3ccc4O)[C@H](O)c3ccc(c(Cl)c3)Oc3cc2cc(c3O[C@@H]2O[C@H](CO)[C@@H](O)[C@H](O)[C@H]2O[C@H]2C[C@](C)(N)[C@H](O)[C@H](C)O2)Oc2ccc(cc2Cl)[C@H]1O` [Vancomycin, reference compound] the MIC [3] was 0.5 µg/mL, the MIC [2, 7] was 0.5 µg/mL (≈ 0.345 µM) and the MIC ([2]; Staphylococcus aureus) was 0.5 µg/mL (≈ 0.345 µM). It also gave an MIC [6, 8] of 4 µg/mL, an MIC ([6]; E. faecalis 1) of 0.12 µg/mL and an MIC ([6]; E. faecalis 7) of 0.5 µg/mL.
